Results reported in ChEMBL document CHEMBL4800722, “Data for DCP probe BI 605906” (2021).

How the values were obtained:
[1] = molecular target: Tyrosine-protein kinase Mer (Homo sapiens) (UniProt Q12866); conditions: Compound concentration 1.0 uM
[2] = molecular target: Sodium-dependent serotonin transporter (Homo sapiens) (UniProt P31645); conditions: Compound concentration 10.0 uM
[3] = molecular target: Homeodomain-interacting protein kinase 2 (Homo sapiens) (UniProt Q9H2X6); experiment: HIPK2 Invitrogen Lab (UK) kinase screen (BI); conditions: Compound concentration 1.0 uM
[4] = molecular target: Beta-1 adrenergic receptor (Homo sapiens) (UniProt P08588); conditions: Compound concentration 10.0 uM
[5] = molecular target: Myosin light chain kinase, smooth muscle (Homo sapiens) (UniProt Q15746); conditions: Compound concentration 1.0 uM
[6] = molecular target: 3-phosphoinositide-dependent protein kinase 1 (Homo sapiens) (UniProt O15530)
[7] = molecular target: Serine/threonine-protein kinase 4 (Homo sapiens) (UniProt Q13043); experiment: STK4 Invitrogen Lab (UK) kinase screen (BI); conditions: Compound concentration 1.0 uM
[8] = molecular target: AMPK alpha1/beta2/gamma1 (Homo sapiens) (UniProt O43741+P54619+Q13131); conditions: Compound concentration 1.0 uM
[9] = molecular target: High affinity nerve growth factor receptor (Homo sapiens) (UniProt P04629); experiment: NTRK1 Invitrogen Lab (UK) kinase screen (BI)
[10] = molecular target: T1, Sodium-dependent dopamine transporter (Homo sapiens, UniProt Q01959); conditions: Compound concentration 10.0 uM
[11] = molecular target: Serine/threonine-protein kinase SIK1 (Homo sapiens) (UniProt P57059); conditions: Compound concentration 1.0 uM
[12] = molecular target: Aurora kinase B (Homo sapiens) (UniProt Q96GD4); conditions: Compound concentration 1.0 uM
[13] = molecular target: Tyrosine-protein kinase ABL2 (Homo sapiens) (UniProt P42684); conditions: Compound concentration 1.0 uM
[14] = molecular target: GABA-A receptor; anion channel (Rattus norvegicus) (UniProt O09028+P15431+P18506+P18508+P19969+P20236+P23574+P23576+P28471+P28473+P30191+P62813+P63079+P63138+Q91ZM7+Q9ES14); conditions: Compound concentration 10.0 uM
[15] = molecular target: Calcium/calmodulin-dependent protein kinase type II subunit alpha (Homo sapiens) (UniProt Q9UQM7); conditions: Compound concentration 1.0 uM
[16] = molecular target: Serine/threonine-protein kinase Nek4 (Homo sapiens) (UniProt P51957); conditions: Compound concentration 1.0 uM
[17] = molecular target: Serine/threonine-protein kinase N2 (Homo sapiens) (UniProt Q16513); experiment: PRK2 DUNDEE kinase screen (BI); conditions: Compound concentration 10.0 uM
[18] = molecular target: Serine/threonine-protein kinase TAO2 (Homo sapiens) (UniProt Q9UL54); conditions: Compound concentration 1.0 uM
[19] = molecular target: Serine/threonine-protein kinase WNK3 (Homo sapiens) (UniProt Q9BYP7); experiment: WNK3 Invitrogen Lab (UK) kinase screen (BI); conditions: Compound concentration 1.0 uM
[20] = molecular target: Ephrin type-A receptor 2 (Homo sapiens) (UniProt P29317)
[21] = molecular target: Interleukin-1 receptor-associated kinase 1 (Homo sapiens) (UniProt P51617); conditions: Compound concentration 1.0 uM
[22] = molecular target: Dual specificity tyrosine-phosphorylation-regulated kinase 3 (Homo sapiens) (UniProt O43781); conditions: Compound concentration 1.0 uM
[23] = molecular target: Serine/threonine-protein kinase D1 (Homo sapiens) (UniProt Q15139); experiment: PKD1 DUNDEE kinase screen (BI); conditions: Compound concentration 10.0 uM
[24] = molecular target: Rhodopsin kinase GRK1 (Homo sapiens) (UniProt Q15835); conditions: Compound concentration 1.0 uM
[25] = molecular target: Muscarinic acetylcholine receptor (Rattus norvegicus) (UniProt P08482+P08483+P08485+P08911+P10980); conditions: Compound concentration 10.0 uM
[26] = molecular target: Proto-oncogene tyrosine-protein kinase ROS (Homo sapiens) (UniProt P08922); conditions: Compound concentration 1.0 uM
[27] = molecular target: SRSF protein kinase 1 (Homo sapiens) (UniProt Q96SB4); conditions: Compound concentration 1.0 uM
[28] = molecular target: LIM domain kinase 1 (Homo sapiens) (UniProt P53667); conditions: Compound concentration 1.0 uM
[29] = molecular target: Endothelin-1 receptor (Homo sapiens) (UniProt P25101); conditions: Compound concentration 100.0 uM
[30] = molecular target: 5-hydroxytryptamine receptor 2C (Homo sapiens) (UniProt P28335); conditions: Compound concentration 10.0 uM
[31] = molecular target: LIM domain kinase 2 (Homo sapiens) (UniProt P53671); conditions: Compound concentration 1.0 uM
Homo sapiens = species: Homo sapiens; experiment: PIK3CA/PIK3R3 Invitrogen Lab (UK) kinase screen (BI); conditions: Compound concentration 1.0 uM
[32] = molecular target: cGMP-dependent protein kinase 2 (Homo sapiens) (UniProt Q13237); conditions: Compound concentration 1.0 uM
[33] = molecular target: Protein kinase C epsilon type (Homo sapiens) (UniProt Q02156); experiment: PRKCE Invitrogen Lab (UK) kinase screen (BI); conditions: Compound concentration 1.0 uM
[34] = molecular target: Cyclin-dependent kinase 5 (Homo sapiens) (UniProt Q00535); experiment: CDK5 (INACTIVE) Invitrogen Lab (UK) kinase screen (BI); conditions: Compound concentration 1.0 uM
[35] = molecular target: 5'-AMP-activated protein kinase catalytic subunit alpha-2/beta-1/gamma-2 (Homo sapiens) (UniProt P54646+Q9UGJ0+Q9Y478); experiment: AMPK (A2/B1/G2) Invitrogen Lab (UK) kinase screen (BI); assay type: protein-complex assay; conditions: Compound concentration 1.0 uM
[36] = molecular target: Tyrosine-protein kinase Fyn (Homo sapiens) (UniProt P06241); conditions: Compound concentration 1.0 uM
[37] = molecular target: Vasopressin V1a receptor (Homo sapiens) (UniProt P37288)
[38] = molecular target: Calcium/calmodulin-dependent protein kinase type II subunit delta (Homo sapiens) (UniProt Q13557); conditions: Compound concentration 1.0 uM
[39] = molecular target: Mitogen-activated protein kinase 1 (Homo sapiens) (UniProt P28482)
[40] = molecular target: T1, Sodium-dependent dopamine transporter; conditions: Compound concentration 10.0 uM; remark: listed apart in the source

T1 sequence (Q01959 whole entry): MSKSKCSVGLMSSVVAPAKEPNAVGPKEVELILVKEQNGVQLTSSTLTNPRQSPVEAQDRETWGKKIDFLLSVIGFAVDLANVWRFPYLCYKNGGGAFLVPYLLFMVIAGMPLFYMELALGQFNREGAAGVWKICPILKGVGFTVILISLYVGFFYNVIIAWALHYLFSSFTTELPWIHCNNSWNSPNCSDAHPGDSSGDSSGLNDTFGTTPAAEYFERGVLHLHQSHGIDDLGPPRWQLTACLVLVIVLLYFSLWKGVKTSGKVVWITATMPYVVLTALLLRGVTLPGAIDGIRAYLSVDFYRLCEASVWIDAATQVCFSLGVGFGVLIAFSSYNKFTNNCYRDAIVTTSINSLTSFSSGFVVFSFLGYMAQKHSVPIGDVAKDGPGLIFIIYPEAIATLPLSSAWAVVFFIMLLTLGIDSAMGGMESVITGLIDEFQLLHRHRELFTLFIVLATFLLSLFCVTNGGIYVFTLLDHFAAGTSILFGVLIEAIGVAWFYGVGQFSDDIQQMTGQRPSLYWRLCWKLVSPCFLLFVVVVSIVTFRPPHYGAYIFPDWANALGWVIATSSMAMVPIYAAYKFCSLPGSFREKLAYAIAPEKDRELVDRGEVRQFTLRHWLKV
Sequence of 3-phosphoinositide-dependent protein kinase 1 (Homo sapiens) (O15530 whole entry, looked up): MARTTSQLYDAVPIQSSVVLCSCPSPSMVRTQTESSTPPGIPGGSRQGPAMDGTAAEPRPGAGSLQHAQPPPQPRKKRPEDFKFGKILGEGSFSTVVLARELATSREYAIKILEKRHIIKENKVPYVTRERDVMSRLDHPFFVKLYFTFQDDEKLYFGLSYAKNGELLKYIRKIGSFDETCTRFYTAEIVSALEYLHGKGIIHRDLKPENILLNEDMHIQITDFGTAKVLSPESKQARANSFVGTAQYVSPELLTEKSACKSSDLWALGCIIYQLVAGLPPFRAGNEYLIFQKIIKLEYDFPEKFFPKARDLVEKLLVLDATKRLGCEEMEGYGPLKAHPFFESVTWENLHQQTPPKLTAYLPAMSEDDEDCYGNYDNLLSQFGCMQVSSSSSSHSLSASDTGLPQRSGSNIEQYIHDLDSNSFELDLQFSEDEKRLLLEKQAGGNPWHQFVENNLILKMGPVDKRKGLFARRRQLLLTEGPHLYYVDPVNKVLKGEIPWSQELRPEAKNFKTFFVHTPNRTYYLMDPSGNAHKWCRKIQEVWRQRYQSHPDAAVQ
Sequence of Mitogen-activated protein kinase 1 (Homo sapiens) (P28482 whole entry): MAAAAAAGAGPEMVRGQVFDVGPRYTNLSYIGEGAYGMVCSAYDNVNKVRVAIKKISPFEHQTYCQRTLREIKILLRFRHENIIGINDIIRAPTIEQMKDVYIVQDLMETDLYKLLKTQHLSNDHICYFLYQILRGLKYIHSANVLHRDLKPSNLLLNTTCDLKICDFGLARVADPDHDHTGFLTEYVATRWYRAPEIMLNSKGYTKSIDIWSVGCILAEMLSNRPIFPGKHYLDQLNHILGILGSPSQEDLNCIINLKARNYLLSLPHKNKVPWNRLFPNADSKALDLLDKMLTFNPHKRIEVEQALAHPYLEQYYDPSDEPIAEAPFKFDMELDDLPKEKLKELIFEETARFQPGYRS
Sequence of High affinity nerve growth factor receptor (Homo sapiens) (P04629 33-796 limits assumed): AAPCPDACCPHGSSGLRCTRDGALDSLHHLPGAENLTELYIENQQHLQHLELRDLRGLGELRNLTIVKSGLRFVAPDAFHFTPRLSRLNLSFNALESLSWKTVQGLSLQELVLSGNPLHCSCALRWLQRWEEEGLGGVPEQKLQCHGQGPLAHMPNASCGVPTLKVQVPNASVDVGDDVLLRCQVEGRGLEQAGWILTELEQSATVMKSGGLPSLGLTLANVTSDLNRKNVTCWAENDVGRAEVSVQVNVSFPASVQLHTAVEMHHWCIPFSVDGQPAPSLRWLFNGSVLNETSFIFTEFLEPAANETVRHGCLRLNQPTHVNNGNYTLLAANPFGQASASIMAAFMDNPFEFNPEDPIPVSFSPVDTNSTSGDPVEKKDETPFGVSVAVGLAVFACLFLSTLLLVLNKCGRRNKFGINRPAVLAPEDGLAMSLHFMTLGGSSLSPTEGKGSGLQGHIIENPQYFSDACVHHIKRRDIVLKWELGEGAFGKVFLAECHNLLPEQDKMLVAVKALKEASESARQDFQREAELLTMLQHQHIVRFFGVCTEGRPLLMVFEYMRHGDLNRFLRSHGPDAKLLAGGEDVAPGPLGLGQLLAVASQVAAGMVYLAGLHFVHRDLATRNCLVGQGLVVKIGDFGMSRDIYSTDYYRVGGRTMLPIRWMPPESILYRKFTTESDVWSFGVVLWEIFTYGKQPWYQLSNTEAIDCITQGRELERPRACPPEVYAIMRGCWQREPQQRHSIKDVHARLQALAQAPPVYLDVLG
Sequence of Ephrin type-A receptor 2 (Homo sapiens) (P29317 whole entry): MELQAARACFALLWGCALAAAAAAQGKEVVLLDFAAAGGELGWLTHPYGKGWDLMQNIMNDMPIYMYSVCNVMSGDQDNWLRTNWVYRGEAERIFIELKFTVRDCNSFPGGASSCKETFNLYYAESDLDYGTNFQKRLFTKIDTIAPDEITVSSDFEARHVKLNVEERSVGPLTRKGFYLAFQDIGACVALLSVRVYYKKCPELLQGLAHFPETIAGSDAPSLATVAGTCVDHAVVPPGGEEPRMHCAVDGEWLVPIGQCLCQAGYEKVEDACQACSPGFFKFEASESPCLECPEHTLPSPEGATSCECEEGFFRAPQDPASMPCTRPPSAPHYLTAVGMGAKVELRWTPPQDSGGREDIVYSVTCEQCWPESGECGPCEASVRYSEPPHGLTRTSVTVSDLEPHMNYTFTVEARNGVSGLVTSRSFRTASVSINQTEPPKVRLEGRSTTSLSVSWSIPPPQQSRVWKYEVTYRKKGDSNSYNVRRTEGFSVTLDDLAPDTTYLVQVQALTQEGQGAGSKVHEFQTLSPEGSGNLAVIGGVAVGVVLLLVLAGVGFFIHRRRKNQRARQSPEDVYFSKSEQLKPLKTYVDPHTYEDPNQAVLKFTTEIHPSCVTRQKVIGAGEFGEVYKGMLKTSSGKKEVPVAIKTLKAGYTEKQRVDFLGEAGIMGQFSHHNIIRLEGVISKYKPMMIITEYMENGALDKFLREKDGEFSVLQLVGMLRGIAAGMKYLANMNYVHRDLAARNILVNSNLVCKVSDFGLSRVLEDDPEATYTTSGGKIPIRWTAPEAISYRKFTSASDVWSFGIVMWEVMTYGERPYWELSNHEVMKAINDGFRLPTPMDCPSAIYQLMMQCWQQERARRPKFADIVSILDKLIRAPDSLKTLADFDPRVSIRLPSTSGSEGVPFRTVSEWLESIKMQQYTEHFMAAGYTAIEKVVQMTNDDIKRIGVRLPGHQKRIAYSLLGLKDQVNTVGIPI
Sequence of Vasopressin V1a receptor (Homo sapiens) (P37288 whole entry, looked up): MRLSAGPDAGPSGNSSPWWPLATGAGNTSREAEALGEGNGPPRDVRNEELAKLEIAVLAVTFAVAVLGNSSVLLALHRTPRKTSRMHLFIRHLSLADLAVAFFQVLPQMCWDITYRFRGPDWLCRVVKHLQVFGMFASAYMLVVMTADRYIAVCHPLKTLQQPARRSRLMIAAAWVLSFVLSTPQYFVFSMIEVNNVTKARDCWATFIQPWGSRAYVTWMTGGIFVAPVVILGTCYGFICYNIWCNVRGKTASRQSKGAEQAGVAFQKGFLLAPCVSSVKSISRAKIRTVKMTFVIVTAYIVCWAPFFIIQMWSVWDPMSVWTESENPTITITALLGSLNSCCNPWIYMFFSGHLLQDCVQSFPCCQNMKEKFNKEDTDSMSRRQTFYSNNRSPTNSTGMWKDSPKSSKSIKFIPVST
Sequence of Dual specificity tyrosine-phosphorylation-regulated kinase 3 (Homo sapiens) (O43781 whole entry): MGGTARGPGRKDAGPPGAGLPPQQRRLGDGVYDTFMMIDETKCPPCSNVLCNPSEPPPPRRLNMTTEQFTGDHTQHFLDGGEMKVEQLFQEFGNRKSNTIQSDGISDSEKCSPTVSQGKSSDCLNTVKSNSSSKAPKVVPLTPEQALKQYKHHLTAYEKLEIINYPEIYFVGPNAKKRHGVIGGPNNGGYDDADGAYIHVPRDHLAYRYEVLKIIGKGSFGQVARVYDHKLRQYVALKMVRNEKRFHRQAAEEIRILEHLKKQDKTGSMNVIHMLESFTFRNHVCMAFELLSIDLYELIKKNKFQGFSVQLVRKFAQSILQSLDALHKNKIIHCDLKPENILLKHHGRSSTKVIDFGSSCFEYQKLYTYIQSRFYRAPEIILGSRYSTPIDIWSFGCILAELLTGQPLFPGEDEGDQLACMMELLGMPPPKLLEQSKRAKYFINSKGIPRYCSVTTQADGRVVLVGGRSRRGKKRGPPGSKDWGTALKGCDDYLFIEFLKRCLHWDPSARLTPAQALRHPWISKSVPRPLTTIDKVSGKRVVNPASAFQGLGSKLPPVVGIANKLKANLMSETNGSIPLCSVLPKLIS
Sequence of Beta-1 adrenergic receptor (Homo sapiens) (P08588 whole entry, looked up): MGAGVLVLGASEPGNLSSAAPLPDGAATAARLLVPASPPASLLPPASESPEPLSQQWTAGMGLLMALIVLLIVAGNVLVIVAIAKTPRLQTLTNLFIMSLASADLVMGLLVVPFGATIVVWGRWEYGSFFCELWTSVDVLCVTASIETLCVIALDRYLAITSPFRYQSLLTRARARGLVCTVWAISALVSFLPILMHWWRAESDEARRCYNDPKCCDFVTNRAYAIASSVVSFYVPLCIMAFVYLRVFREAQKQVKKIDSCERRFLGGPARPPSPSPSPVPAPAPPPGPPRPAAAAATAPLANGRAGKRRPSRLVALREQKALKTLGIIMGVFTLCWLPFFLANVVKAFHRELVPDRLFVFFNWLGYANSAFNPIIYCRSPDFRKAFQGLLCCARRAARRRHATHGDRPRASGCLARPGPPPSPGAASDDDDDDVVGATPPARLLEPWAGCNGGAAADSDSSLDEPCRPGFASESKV

CCC(F)(F)c1cc(N2CCC(S(C)(=O)=O)CC2)nc2sc(C(N)=O)c(N)c12 [BI-605906]
residual activity [1]: 93%
residual activity [2]: 108%
residual activity [3]: 81%
inhibition [4]: -8.38%
residual activity [5]: 91%
residual activity ([6]; Compound concentration 1.0 uM): 89%
residual activity ([6]; Compound concentration 10.0 uM): 101%
residual activity [7]: 102%
residual activity [8]: 91%
residual activity ([9]; Compound concentration 1.0 uM): 81%
residual activity ([9]; Compound concentration 10.0 uM): 83%
inhibition [10]: 2.35%
residual activity [11]: 92%
residual activity [12]: 98%
residual activity [13]: 91%
inhibition [14]: 32.6%
residual activity [15]: 100%
residual activity [16]: 89%
residual activity [17]: 46.4%
residual activity [18]: 101%
residual activity [19]: 102%
residual activity ([20]; Compound concentration 1.0 uM): 93%
residual activity ([20]; Compound concentration 10.0 uM): 63%
residual activity [21]: 89%
residual activity [22]: 92%
residual activity [23]: 93.5%
residual activity [24]: 87%
residual activity [25]: 99%
residual activity [26]: 94%
residual activity [27]: 99%
residual activity [28]: 97%
residual activity [29]: 101%
inhibition [30]: -5.41%
residual activity [31]: 95%
residual activity (Homo sapiens): 103%
residual activity [32]: 108%
residual activity [33]: 127%
residual activity [34]: 83%
residual activity [35]: 88%
residual activity [36]: 97%
residual activity ([37]; Compound concentration 10.0 uM): 99%
residual activity ([37]; Compound concentration 100.0 uM): 89%
residual activity [38]: 96%
residual activity ([39]; Compound concentration 1.0 uM): 92%
residual activity ([39]; Compound concentration 10.0 uM): 101%
residual activity [40]: 105%
